Test [1] has as its system HT-29. The test can be described thus: Cytotoxicity against human HT-29 cells. The format is functional, cell-based.
The target of test [2] is T1, Tubulin (Sus scrofa) (UniProt P02554+P02550). The test is described as follows: Binding affinity to pig tubulin at 2 uM treated for 30 mins followed by photo-irradiation at 365 nm for 30 secs measured after 1 hr by Western blot analysis. Type of test: protein assay. Background: A western blot detects proteins with antibodies after separation by electrophoresis.
Test [3] has as its target Tubulin (Sus scrofa, UniProt P02554+P02550). The test is described as follows: Binding affinity to pig tubulin after 1 hr by fluorescence quenching analysis. The format is protein assay.
The subject of test [4] is HT-1080. The test can be described thus: Binding affinity to beta-tubulin in human HT1080 cells after overnight incubation by SDS-PAGE. The format is cell-based.
For test [5], the target named is T1, Tubulin (Sus scrofa). The test is described as follows: Binding affinity to pig tubulin assessed as irradiation-time-dependent labeling at 2 uM treated for 30 mins followed by photo-irradiation at 365 nm by CBB staining-based SDS-PAGE. Type of test: protein assay. The settings on record: TDE = time-dependent effect.
Test [6] is filed under the species Sus scrofa. The test can be described thus: Binding affinity to pig alpha-tubulin at 2 uM treated for 30 mins followed by photo-irradiation at 365 nm for 30 secs measured after 1 hr by Western blot analysis.
For test [7], the species on record is Sus scrofa. The test can be described thus: Binding affinity to pig beta-tubulin at 2 uM treated for 30 mins followed by photo-irradiation at 365 nm for 30 secs measured after 1 hr by Western blot analysis.
Test [8] has as its target T1, Tubulin (Sus scrofa). The test can be described thus: Binding affinity to pig tubulin at 2 uM treated for 30 mins followed by photo-irradiation at 365 nm for 30 secs measured after 1 hr by Western blot analysis in presence of increasing concentration of plinabulin. The format is protein assay.
Test [9] concerns the target T1, Tubulin (Sus scrofa). The test can be described thus: Binding affinity to pig tubulin at 2 uM treated for 30 mins followed by photo-irradiation at 365 nm for 30 secs measured after 1 hr by Western blot analysis in presence of 100 equivalents of colchicine. The format is protein assay.
Test [10] deals with T1, Tubulin (Sus scrofa). The test can be described thus: Binding affinity to pig tubulin at 2 uM treated for 30 mins followed by photo-irradiation at 365 nm for 30 secs measured after 1 hr by Western blot analysis in presence of 5-100 equivalents of biotin. Type of test: protein assay.
Test [11] concerns the target T1, Tubulin (Sus scrofa). The test is described as follows: Binding affinity to pig tubulin at 2 uM treated for 30 mins followed by photo-irradiation at 365 nm for 30 secs measured after 1 hr by CBB staining-based SDS-PAGE. Type of test: protein assay.
Test [12] relates to HT-1080. The test can be described thus: Binding affinity to alpha-tubulin in human HT1080 cells after overnight incubation by SDS-PAGE. The format is cell-based.

Activity calls are given as the source filed them. The rule behind the calls is not given here. Square brackets hold non-standard residues; d marks the D form. Peptide text beside a SMILES is read from it. * marks the point of attachment. Biotin = O=C1N[C@H]2[C@H](CS[C@H]2CCCCC(=O)*)N1; Ahx = NCCCCCC(=O)O

Experimental findings from ChEMBL document CHEMBL1157782, “Anti-microtubule 'plinabulin' chemical probe KPU-244-B3 labeled both alpha- and beta-tubulin” (Bioorg Med Chem, 2010) are described below.

T1 sequence (P02550 whole entry, looked up): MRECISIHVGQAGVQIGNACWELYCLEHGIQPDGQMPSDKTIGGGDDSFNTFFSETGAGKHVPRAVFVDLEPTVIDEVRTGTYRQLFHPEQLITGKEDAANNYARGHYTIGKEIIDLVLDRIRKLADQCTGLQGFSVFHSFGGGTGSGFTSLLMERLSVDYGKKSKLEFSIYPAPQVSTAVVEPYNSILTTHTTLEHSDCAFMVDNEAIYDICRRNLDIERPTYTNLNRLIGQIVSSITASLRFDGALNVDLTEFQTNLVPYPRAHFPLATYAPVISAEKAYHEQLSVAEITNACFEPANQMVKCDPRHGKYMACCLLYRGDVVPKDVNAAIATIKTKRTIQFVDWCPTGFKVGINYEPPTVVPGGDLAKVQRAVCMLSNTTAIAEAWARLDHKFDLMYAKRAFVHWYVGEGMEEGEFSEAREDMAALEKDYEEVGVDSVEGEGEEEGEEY
T1 sequence (P02554 whole entry, looked up): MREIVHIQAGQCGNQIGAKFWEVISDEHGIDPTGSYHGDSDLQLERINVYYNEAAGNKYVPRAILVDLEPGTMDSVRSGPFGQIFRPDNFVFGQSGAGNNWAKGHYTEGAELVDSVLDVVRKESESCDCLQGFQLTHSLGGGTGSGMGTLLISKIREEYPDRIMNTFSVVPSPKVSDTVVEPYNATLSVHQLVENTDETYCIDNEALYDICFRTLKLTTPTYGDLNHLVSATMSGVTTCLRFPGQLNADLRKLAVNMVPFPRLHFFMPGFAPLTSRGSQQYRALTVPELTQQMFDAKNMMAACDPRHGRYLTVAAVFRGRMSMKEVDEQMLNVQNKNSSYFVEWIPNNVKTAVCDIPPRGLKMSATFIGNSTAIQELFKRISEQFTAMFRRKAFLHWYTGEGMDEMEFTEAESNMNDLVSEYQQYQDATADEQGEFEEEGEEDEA

Take `CC(C)(C)c1ocnc1/C=c1\[nH]c(=O)/c(=C/c2cccc(C(=O)c3ccccc3)c2)[nH]c1=O`: inhibition in test [1] was half-maximal at 4 nM (IC50).
`CC(C)(C)c1ocnc1/C=c1\[nH]c(=O)/c(=C/c2cccc(C(=O)c3ccc(CNC(=O)CCCCCNC(=O)CCCCCNC(=O)CCCC[C@@H]4SC[C@@H]5NC(=O)N[C@@H]54)cc3)c2)[nH]c1=O` (stereo in doubt): the result in [2] was Active. Besides, in test [3], the Kd (usually the free concentration of one partner at which half of the binding sites on the other are occupied at equilibrium, for simple one-to-one binding) was 9740 nM.
As for `CC(C)(C)c1ocnc1/C=c1\[nH]c(=O)/c(=C/c2cccc(C(=O)c3ccc(CNC(=O)CCCCCNC(=O)CCCCCNC(=O)CCCCCNC(=O)CCCCCNC(=O)[C@H](CCCCN)NC(=O)[C@H](CCCCN)NC(=O)CCCCCNC(=O)CCCCCNC(=O)CCCC[C@@H]4SC[C@@H]5NC(=O)N[C@@H]54)cc3)c2)[nH]c1=O` (stereo in doubt), the outcome in test [4], in test [6], in test [7], in test [10], in test [11] and in test [12] was Active. The Activity entry in [5] was “tde”. Besides, the result in [8] and in [9] was inactive. The same compound yielded a Kd in test [3] of 25170 nM.
Take `NCCCC[C@H](NC(=O)CCCCCNC(=O)CCCCCNC(=O)CCCC[C@@H]1SC[C@@H]2NC(=O)N[C@@H]21)C(=O)N[C@@H](CCCCN)C(=O)NCCCCCC(=O)NCCCCCC(=O)NCCCCCC(=O)NCCCCCC(=O)O` ({Biotin-Ahx-Ahx}-KK[Ahx][Ahx][Ahx][Ahx]-OH): the result in [4] and in test [12] was inactive.
As for `CC(C)(C)c1[nH]cnc1/C=c1\[nH]c(=O)/c(=C/c2ccccc2)[nH]c1=O` [PLINABULIN], the IC50 (usually the concentration at which inhibition is half-maximal) in test [1] amounted to 15 nM. The same compound had a Kd in [3] of 1060 nM.
